Columns and labels:
Format in all cases: functional
Conditions in all cases: read-out: DIZ
Staphylococcus aureus [1] = assay: Antibacterial activity against Staphylococcus aureus at 100 ug/ml after 24 hr by disk diffusion method
Staphylococcus aureus [2] = assay: Antibacterial activity against Staphylococcus aureus at 50 ug/ml after 24 hr by disk diffusion method
Bacillus subtilis [3] = assay: Antibacterial activity against Bacillus subtilis at 100 ug/ml after 24 hr by disk diffusion method
Bacillus subtilis [4] = assay: Antibacterial activity against Bacillus subtilis at 200 ug/ml after 24 hr by disk diffusion method
Bacillus subtilis [5] = assay: Antibacterial activity against Bacillus subtilis at 50 ug/ml after 24 hr by disk diffusion method
Pseudomonas aeruginosa [6] = assay: Antibacterial activity against Pseudomonas aeruginosa at 100 ug/ml after 24 hr by disk diffusion method
Pseudomonas aeruginosa [7] = assay: Antibacterial activity against Pseudomonas aeruginosa at 200 ug/ml after 24 hr by disk diffusion method
Pseudomonas aeruginosa [8] = assay: Antibacterial activity against Pseudomonas aeruginosa at 50 ug/ml after 24 hr by disk diffusion method
Escherichia coli [9] = assay: Antibacterial activity against Escherichia coli at 200 ug/ml after 24 hr by disk diffusion method
Escherichia coli [10] = assay: Antibacterial activity against Escherichia coli at 50 ug/ml after 24 hr by disk diffusion method
Escherichia coli [11] = assay: Antibacterial activity against Escherichia coli at 100 ug/ml after 24 hr by disk diffusion method
Candida albicans [12] = assay: Antifungal activity against Candida albicans at 200 ug/ml after 48 hr by disk diffusion method
Aspergillus niger [13] = assay: Antifungal activity against Aspergillus niger at 50 ug/ml after 48 hr by disk diffusion method
Candida albicans [14] = assay: Antifungal activity against Candida albicans at 100 ug/ml after 48 hr by disk diffusion method
Candida albicans [15] = assay: Antifungal activity against Candida albicans at 50 ug/ml after 48 hr by disk diffusion method
Staphylococcus aureus [16] = assay: Antibacterial activity against Staphylococcus aureus at 200 ug/ml after 24 hr by disk diffusion method
Aspergillus niger [17] = assay: Antifungal activity against Aspergillus niger at 200 ug/ml after 48 hr by disk diffusion method
Aspergillus niger [18] = assay: Antifungal activity against Aspergillus niger at 100 ug/ml after 48 hr by disk diffusion method

SMILES	zone of inhibition at 100 µg/mL (Staphylococcus aureus [1]) [mm]	zone of inhibition at 50 µg/mL (Staphylococcus aureus [2]) [mm]	zone of inhibition at 100 µg/mL (Bacillus subtilis [3]) [mm]	zone of inhibition at 200 µg/mL (Bacillus subtilis [4]) [mm]	zone of inhibition at 50 µg/mL (Bacillus subtilis [5]) [mm]	zone of inhibition at 100 µg/mL (Pseudomonas aeruginosa [6]) [mm]	zone of inhibition at 200 µg/mL (Pseudomonas aeruginosa [7]) [mm]	zone of inhibition at 50 µg/mL (Pseudomonas aeruginosa [8]) [mm]	zone of inhibition at 200 µg/mL (Escherichia coli [9]) [mm]	zone of inhibition at 50 µg/mL (Escherichia coli [10]) [mm]	zone of inhibition at 100 µg/mL (Escherichia coli [11]) [mm]	zone of inhibition at 200 µg/mL (Candida albicans [12]) [mm]	zone of inhibition at 50 µg/mL (Aspergillus niger [13]) [mm]	zone of inhibition at 100 µg/mL (Candida albicans [14]) [mm]	zone of inhibition at 50 µg/mL (Candida albicans [15]) [mm]	zone of inhibition at 200 µg/mL (Staphylococcus aureus [16]) [mm]	zone of inhibition at 200 µg/mL (Aspergillus niger [17]) [mm]	zone of inhibition at 100 µg/mL (Aspergillus niger [18]) [mm]
CN1CCN(CN2C(=O)N(c3ccccc3)C(=O)C2(c2ccccc2)c2ccccc2)CC1	10	6	5	14	4	6	10	4	16	6	13	13	11	13	12	18	12	12
O=C1N(c2ccccc2)C(=O)C(c2ccccc2)(c2ccccc2)N1Cn1nnc2ccccc21	10	4	12	18	5	10	12	6	14	3	8	13	11	12	11	14	11	11
O=C1N(c2ccccc2)C(=O)C(c2ccccc2)(c2ccccc2)N1Cn1ccnc1	9	4	11	13	5	9	18	5	19	5	14	13	10	11	10	18	13	12
O=C1N(c2ccccc2)C(=O)C(c2ccccc2)(c2ccccc2)N1Cn1cnc2ccccc21	10	5	13	18	5	8	12	4	18	6	12	32	16	24	16	12	32	19
O=C1c2ccccc2C(=O)N1CN1C(=O)N(c2ccccc2)C(=O)C1(c1ccccc1)c1ccccc1	6	4	10	14	4	8	10	5	20	5	12	20	12	16	15	9	16	15
O=C1N(c2ccccc2)C(=O)C(c2ccccc2)(c2ccccc2)N1CNc1nc2ccccc2s1	10	5	10	18	7	12	20	7	17	6	15	20	16	15	13	17	20	16

— ChEMBL document CHEMBL3044687, “Microwave-assisted synthesis of some novel and potent antibacterial and antifungal compounds with biological screening” (2012)
